Marks after values point to notes of the source that are not given here.
Tests used:
Her-2/neu = assay: ELISA inhibition of the binding of herceptin and HER-2/neu (SKBR3 membranes) by mimotopes; conditions: in comparison to uninhibited herceptin control in ELISA, herceptin preincubated overnight
Protocol: For the ELISA inhibition assay one tries to prevent this bond by preincubation with mimotopes on phages or KLH as carrier.
(§1) The wells of a 96-well ELISA plate (Nunc) were coated with membrane fractions of the Her-2/neu overexpressing cell line SKBR3 and as a control for non-specific antibody bonds with membrane fractions of the Her-2/neu negative cell line HTB 132 in PBS overnight.
(§2) The next day, non-specific binding sites were blocked by 3 percent BSA in PBS. Herceptin as well as herceptin after preincubation with relevant and irrelevant phage mimotopes or by mimotopes on KLH as well as on KLH alone were applied to the coated, blocked ELISA plate in a repeated test. […] HRP enters into a color reaction with the substrate. The result of this color reaction can be quantified by photometer. The absorption coefficient of 450/630 nm (OD) is determined.

SKBR3 membranes = assay: ELISA of control antibody binding to SKBR3 membranes; conditions: control antibody against CD20
Protocol: as §1, §2

| Substance | Inhibition of herceptin binding with phage mimotopes (Her-2/neu) | signal on SKBR3 membranes (SKBR3 membranes) |
| --- | --- | --- |
| phage mimotope SEQ ID NO: 9: phage mimotope CHPTLLWPDFC (homo sapiens) | 30.2* Percent | – |
| Rituximab: humanized monoclonal antibody directed against the phosphoprotein surface antigen on lymphocytes, CD20; control antibody | – | could not produce any signal |
